Source: patent EP4678638A1, “NEW E3 UBIQUITIN LIGASE LIGAND, PROTEIN DEGRADATION AGENT AND USE THEREOF” (priority 2023, dated 2024)

Legend:
IRAK4 = molecular target: T1, IRAK4 (Homo sapiens, UniProt Q9NWZ3); assay: Western blot degradation of IRAK4 (hPBMC); assay type: cell-based; conditions: Table D1
T1 construct: evaluate the effects of the compounds of the present disclosure on the expression of target proteins in cells; endogenous in cells; host or cells: hPBMC
T1 sequence (Q9NWZ3 1-460): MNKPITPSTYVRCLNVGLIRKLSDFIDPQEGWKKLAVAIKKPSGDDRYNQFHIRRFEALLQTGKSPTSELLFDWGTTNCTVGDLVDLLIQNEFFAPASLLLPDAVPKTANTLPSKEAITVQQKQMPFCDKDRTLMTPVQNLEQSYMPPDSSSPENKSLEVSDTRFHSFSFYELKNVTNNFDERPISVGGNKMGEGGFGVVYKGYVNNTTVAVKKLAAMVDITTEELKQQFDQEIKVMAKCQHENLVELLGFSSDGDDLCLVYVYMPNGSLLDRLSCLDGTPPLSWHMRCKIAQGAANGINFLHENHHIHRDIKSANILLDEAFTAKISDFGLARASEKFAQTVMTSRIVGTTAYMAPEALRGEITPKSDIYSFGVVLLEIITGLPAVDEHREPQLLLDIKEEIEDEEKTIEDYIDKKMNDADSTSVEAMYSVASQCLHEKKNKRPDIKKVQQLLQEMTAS
Procedure: Conventional Western blot assay was performed to evaluate the effects of the compounds of the present disclosure on the expression of target proteins in cells.
(1) Cell Seeding and Protein Harvesting: The selected cells were processed according to the cell seeding procedure and protein harvesting procedure in Table III-2. Table III-2 Cell Seeding and Protein Harvesting Procedures
(2) To the collected supernatant, 5X SDS sample loading buffer was added, followed by denaturation at 95°C for 5 minutes. The denatured samples were then separated by SDS-PAGE electrophoresis on a polyacrylamide gel. Proteins were transferred to a nitrocellulose membrane (0.45 µm NC membrane), blocked with blocking buffer at room temperature for 1 hour, and subjected to antibody incubation and development procedures according to the antibody manufacturer's instructions (Cell Signaling Technology).
Half-Maximal Degradation Concentration value (the drug concentration required for degrading proteins by 50%, abbreviated as DC50) reads method: comparing the grayscale values of Western blot bands from drug-treated samples with those from blank DMSO-treated controls, and identifying the drug concentration range at which the grayscale value is half that of the DMSO-treated control bands.
DC50 values can be calculated using ImageJ software to measure grayscale values of Western blot bands from drug-treated samples. The concentration-response curve is fitted to estimate the drug concentration corresponding to half the grayscale value.
Target protein remaining (%) refers to the percentage of target protein remaining in hPBMC cells after treatment with protein degrader compounds.
Calculation method for target protein remaining (%): Use ImageJ software to measure grayscale values of Western blot bands from drug (protein degrader)-treated samples. The grayscale value of drug-treated bands is divided by that of internal control protein bands, and the resulting quotient is normalized to obtain the relative percentage of remaining target protein after protein degrader treatment.
Target protein degradation rate (%) = 100% - target protein remaining (%).

[1] = molecular target: T2, human Cereblon WT GST-tagged protein (Homo sapiens, UniProt Q96SW2); assay: CRBN binding, HTRF (CEREBLON BINDING kit); conditions: Table II-2, CRBN binding screening, HTRF; for inhibition at 0.5 µM: read-out: Inhibition rate (%) at 0.5µM; for inhibition at 2 µM: read-out: Inhibition rate (%) at 2 µM
T2 construct: purchased CISBIO 64BDCRBNPEH
T2 sequence (Q96SW2 whole entry): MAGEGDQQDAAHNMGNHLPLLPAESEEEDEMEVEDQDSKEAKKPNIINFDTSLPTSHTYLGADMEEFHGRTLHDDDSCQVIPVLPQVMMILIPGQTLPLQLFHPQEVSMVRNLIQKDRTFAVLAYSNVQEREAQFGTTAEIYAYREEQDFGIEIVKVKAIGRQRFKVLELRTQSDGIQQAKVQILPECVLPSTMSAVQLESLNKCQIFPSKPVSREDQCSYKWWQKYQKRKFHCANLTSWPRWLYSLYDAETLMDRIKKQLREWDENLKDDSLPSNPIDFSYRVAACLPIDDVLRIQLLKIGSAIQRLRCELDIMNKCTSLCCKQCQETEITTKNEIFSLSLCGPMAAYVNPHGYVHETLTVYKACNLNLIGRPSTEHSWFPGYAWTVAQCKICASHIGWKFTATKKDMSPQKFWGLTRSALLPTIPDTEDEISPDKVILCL
Outline: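 Competitive HTRF: GST-tagged human WT Cereblon mixed with compound, Thalidomide-Re tracer and GST Eu antibody, incubated 3 h at room temperature. Signals read at 620 and 665 nm.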

SMILES | Degradation of substrate protein IRAK4 (substrate protein remaining %) (IRAK4) | inhibition at 0.5 µM [1] [%] | inhibition at 2 µM [1] [%]
COc1cc2nn(C3CCN(Cc4ccc(C5CCC(=O)NC5=O)cn4)CC3)cc2cc1NC(=O)c1cccc(C(F)(F)F)c1 (stereo not shown) [GT-07417, N-(2-(1-((5-(2,6-dioxopiperidin-3-yl)pyridin-2-yl)methyl)piperidin-4-yl)-6-methoxy-2H-indazol-5-yl)-3-(trifluoromethyl)benzamide] | A (A is defined as 0% ≤ substrate protein remaining % ≤ 80%) | 30 to 40 | 60 to 80
CC(C)(O)c1cc2nn(C3CCN(Cc4ccnc(C5CCC(=O)NC5=O)c4)CC3)cc2cc1NC(=O)c1cccc(C(F)(F)F)n1 (stereo not shown) [GT-07542, N-(2-(1-((2-(2,6-dioxopiperidin-3-yl)pyridin-4-yl)methyl)piperidin-4-yl)-6-(2-hydroxypropan-2-yl)-2H-indazol-5-yl)-6-(trifluoromethyl)picolinamide] | A (A is defined as 0% ≤ substrate protein remaining % ≤ 80%) | 30 to 40 | 60 to 80
CC(C)(O)c1cc2nc(C3CCN(Cc4cncc(N5CCC(=O)NC5=O)c4)CC3)oc2cc1NC(=O)c1cccc(C(F)(F)F)n1 [GT-07628, N-(2-(1-((5-(2,4-dioxotetrahydropyrimidin-1(2H)-yl)pyridin-3-yl)methyl)piperidin-4-yl)-5-(2-hydroxypropan-2-yl)benzo[d]oxazol-6-yl)-6-(trifluoromethyl)picolinamide] | A (A is defined as 0% ≤ substrate protein remaining % ≤ 80%) | 20 to 30 | 60 to 80
COc1ccc2cn(C3CCN(Cc4ccc(C5CCC(=O)NC5=O)cc4)CC3)nc2c1NC(=O)c1cccc(C(F)(F)F)c1 (stereo not shown) [GT-04813, N-(2-(1-(4-(2,6-dioxopiperidin-3-yl)benzyl)piperidin-4-yl)-6-methoxy-2H-indazol-7-yl)-3-(trifluoromethyl)benzamide] | A (A is defined as 0% ≤ substrate protein remaining % ≤ 80%) | – | –
COc1cc2nn(C3CCN(Cc4cccc(N5CCC(=O)NC5=O)c4)CC3)cc2cc1NC(=O)c1cccc(C(F)(F)F)n1 [GT-04774, N-(2-(1-(3-(2,4-dioxotetrahydropyrimidin-1(2H)-yl)benzyl)piperidin-4-yl)-6-methoxy-2H-indazol-5-yl)-6-(trifluoromethyl)picolinamide] | A (A is defined as 0% ≤ substrate protein remaining % ≤ 80%) | – | –
CC(C)Nc1cc(-n2ccc3cc(C#N)cnc32)ncc1C(=O)NC1CCN(Cc2cc(N3CCC(=O)NC3=O)ncc2F)CC1 [GT-07408, 6-(5-cyano-1H-pyrrolo[2,3-b]pyridin-1-yl)-N-(1-((2-(2,4-dioxotetrahydropyrimidin-1(2H)-yl)-5-fluoropyridin-4-yl)methyl)piperidin-4-yl)-4-(isopropylamino)nicotinamide] | A (A is defined as 0% ≤ substrate protein remaining % ≤ 80%) | – | –
CC(C)Nc1cc(-n2ccc3cc(C#N)cnc32)ncc1C(=O)NC1CCN(Cc2ccc(C3CCC(=O)NC3=O)cn2)CC1 (stereo not shown) [GT-07411, 6-(5-cyano-1H-pyrrolo[2,3-b]pyridin-1-yl)-N-(1-((5-(2,6-dioxopiperidin-3-yl)pyridin-2-yl)methyl)piperidin-4-yl)-4-(isopropylamino)nicotinamide] | A (A is defined as 0% ≤ substrate protein remaining % ≤ 80%) | – | –
CC(C)(O)c1cc2nc(C3CCN(Cc4ccnc(N5CCC(=O)NC5=O)c4)CC3)sc2cc1NC(=O)c1cccc(C(F)(F)F)n1 [GT-07619, N-(2-(1-((2-(2,4-dioxotetrahydropyrimidin-1(2H)-yl)pyridin-4-yl)methyl)piperidin-4-yl)-5-(2-hydroxypropan-2-yl)benzo[d]thiazol-6-yl)-6-(trifluoromethyl)picolinamide] | A (A is defined as 0% ≤ substrate protein remaining % ≤ 80%) | – | –
CC(C)Nc1cc(-n2ccc3cc(C#N)cnc32)ncc1C(=O)NC1CCN(Cc2ccnc(N3CCC(=O)NC3=O)c2)CC1 [GT-07409, 6-(5-cyano-1H-pyrrolo[2,3-b]pyridin-1-yl)-N-(1-((2-(2,4-dioxotetrahydropyrimidin-1(2H)-yl)pyridin-4-yl)methyl)piperidin-4-yl)-4-(isopropylamino)nicotinamide] | A (A is defined as 0% ≤ substrate protein remaining % ≤ 80%) | – | –
O=C1CCN(c2ccc(CN3CCC(n4cc(NC(=O)c5cnn6ccc(N7C[C@H]8C[C@@H]7CO8)nc56)c(C(F)F)n4)CC3)cn2)C(=O)N1 [GT-05054, 5-((1R,4R)-2-oxa-5-azabicyclo[2.2.1]heptan-5-yl)-N-(3-(difluoromethyl)-1-(1-((6-(2,4-dioxotetrahydropyrimidin-1(2H)-yl)pyridin-3-yl)methyl)piperidin-4-yl)-1H-pyrazol-4-yl)pyrazolo[1,5-a]pyrimidine-3-carboxamide] | A (A is defined as 0% ≤ substrate protein remaining % ≤ 80%) | – | –
COc1cc2nn(C3CCN(Cc4cccc(N5CCC(=O)NC5=O)c4)CC3)cc2cc1NC(=O)c1cccc(C(F)(F)F)c1 [GT-04750, N-(2-(1-(3-(2,4-dioxotetrahydropyrimidin-1(2H)-yl)benzyl)piperidin-4-yl)-6-methoxy-2H-indazol-5-yl)-3-(trifluoromethyl)benzamide] | A (A is defined as 0% ≤ substrate protein remaining % ≤ 80%) | – | –
Cc1cc(-c2nc(C(=O)Nc3cc4oc(N5CCN(Cc6ccc(N7CCC(=O)NC7=O)cc6)CC5)nc4nc3N3CC[C@@H](O)C3)co2)ccn1 [GT-05807, (R)-N-(2-(4-(4-(2,4-dioxotetrahydropyrimidin-1(2H)-yl)benzyl)piperazin-1-yl)-5-(3-hydroxypyrrolidin-1-yl)oxazolo[4,5-b]pyridin-6-yl)-2-(2-methylpyridin-4-yl)oxazole-4-carboxamide] | A (A is defined as 0% ≤ substrate protein remaining % ≤ 80%) | – | –
COc1cc2nn(C3CCN(Cc4ccc(C5CCC(=O)NC5=O)cc4)CC3)cc2cc1NC(=O)c1cccc(C(F)(F)F)n1 (stereo not shown) [GT-04761, N-(2-(1-(4-(2,6-dioxopiperidin-3-yl)benzyl)piperidin-4-yl)-6-methoxy-2H-indazol-5-yl)-6-(trifluoromethyl)picolinamide] | A (A is defined as 0% ≤ substrate protein remaining % ≤ 80%) | – | –
COc1cc2nn(C3CCN(Cc4ccnc(C5CCC(=O)NC5=O)c4)CC3)cc2cc1NC(=O)c1cccc(C(F)(F)F)c1 (stereo not shown) [GT-07418, N-(2-(1-((2-(2,6-dioxopiperidin-3-yl)pyridin-4-yl)methyl)piperidin-4-yl)-6-methoxy-2H-indazol-5-yl)-3-(trifluoromethyl)benzamide] | A (A is defined as 0% ≤ substrate protein remaining % ≤ 80%) | – | –
COc1cc2nn(C3CCN(Cc4ccc(N5CCC(=O)NC5=O)nc4)CC3)cc2cc1NC(=O)c1cccc(C(F)(F)F)c1 [GT-04879, N-(2-(1-((6-(2,4-dioxotetrahydropyrimidin-1(2H)-yl)pyridin-3-yl)methyl)piperidin-4-yl)-6-methoxy-2H-indazol-5-yl)-3-(trifluoromethyl)benzamide] | A (A is defined as 0% ≤ substrate protein remaining % ≤ 80%) | – | –
CC(C)Nc1cc(-n2ccc3cc(C#N)cnc32)ncc1C(=O)NC1CCN(Cc2cccnc2C2CCC(=O)NC2=O)CC1 (stereo not shown) [GT-07546, 6-(5-cyano-1H-pyrrolo[2,3-b]pyridin-1-yl)-N-(1-((2-(2,6-dioxopiperidin-3-yl)pyridin-3-yl)methyl)piperidin-4-yl)-4-(isopropylamino)nicotinamide] | A (A is defined as 0% ≤ substrate protein remaining % ≤ 80%) | – | –
